Paper PMC2735267 (Neuropharmacology, 2009)
Read-outs that look alike come from different tables or passages of the source.

What was measured:
DBA/2J mice = assay: 3-IC-induced hypothermia; assay type: in vivo, mouse
C57BL/6J mice = assay: 3-IC-induced hypothermia; assay type: in vivo, mouse
α7-nAChR = α7-nAChR (Mus musculus, UniProt P49582); assay: biochemical; assay type: binding, C57BL/6J mice
[1] = system: [125I]epibatidine binding sites (β2*- and β4*-nAChR); parameters: species or system C57BL/6J mice; settings: inferior colliculus, wild-type
α7* nAChR binding sites = settings: ten days 2 mg/kg/h nicotine, DBA/2J, ref Pauly et al., 1991, cited from earlier work
human α3β4-nAChR = settings: Xenopus oocytes; ref Abin-Carriquiry et al., 2006; cited from earlier work
β4*-nAChR [2] = biological target: β4*-nAChR (Mus musculus, UniProt Q8R493+Q8R4G9); assay: biochemical; assay type: binding, C57BL/6J mice
Sequence of β4*-nAChR (Mus musculus, UniProt Q8R493+Q8R4G9) (Q8R493 21-495): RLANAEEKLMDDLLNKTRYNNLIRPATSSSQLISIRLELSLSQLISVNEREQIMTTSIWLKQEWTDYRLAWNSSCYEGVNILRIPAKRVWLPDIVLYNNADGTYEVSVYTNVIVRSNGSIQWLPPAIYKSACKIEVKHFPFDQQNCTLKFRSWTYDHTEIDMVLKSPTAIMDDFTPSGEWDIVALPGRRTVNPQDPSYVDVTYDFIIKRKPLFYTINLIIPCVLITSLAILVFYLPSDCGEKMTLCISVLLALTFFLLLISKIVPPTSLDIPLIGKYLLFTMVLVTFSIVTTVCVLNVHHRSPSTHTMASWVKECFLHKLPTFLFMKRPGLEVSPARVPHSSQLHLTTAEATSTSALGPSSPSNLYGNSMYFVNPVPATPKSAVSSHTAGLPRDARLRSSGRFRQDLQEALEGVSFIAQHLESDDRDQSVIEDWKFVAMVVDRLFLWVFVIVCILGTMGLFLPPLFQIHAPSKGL
Sequence of β4*-nAChR (Mus musculus, UniProt Q8R493+Q8R4G9) (Q8R4G9 26-499): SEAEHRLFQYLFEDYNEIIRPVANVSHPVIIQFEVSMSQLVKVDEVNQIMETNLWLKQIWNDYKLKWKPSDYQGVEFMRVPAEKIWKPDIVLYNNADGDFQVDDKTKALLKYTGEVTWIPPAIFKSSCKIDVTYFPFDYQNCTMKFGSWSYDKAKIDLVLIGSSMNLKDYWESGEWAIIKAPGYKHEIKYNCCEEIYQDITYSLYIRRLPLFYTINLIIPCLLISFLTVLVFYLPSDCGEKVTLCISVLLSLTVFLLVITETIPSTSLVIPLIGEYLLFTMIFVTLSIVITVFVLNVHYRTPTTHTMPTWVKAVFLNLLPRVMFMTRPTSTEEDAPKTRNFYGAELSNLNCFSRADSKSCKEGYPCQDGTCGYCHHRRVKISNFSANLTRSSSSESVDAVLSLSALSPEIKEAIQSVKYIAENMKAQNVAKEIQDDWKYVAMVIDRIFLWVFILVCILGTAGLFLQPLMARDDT

β2*-nAChR [3] = biological target: β2*-nAChR (Mus musculus, UniProt O70174+Q9ERK7); assay: biochemical; assay type: binding, C57BL/6J mice
Sequence of β2*-nAChR (Mus musculus, UniProt O70174+Q9ERK7) (O70174 31-629): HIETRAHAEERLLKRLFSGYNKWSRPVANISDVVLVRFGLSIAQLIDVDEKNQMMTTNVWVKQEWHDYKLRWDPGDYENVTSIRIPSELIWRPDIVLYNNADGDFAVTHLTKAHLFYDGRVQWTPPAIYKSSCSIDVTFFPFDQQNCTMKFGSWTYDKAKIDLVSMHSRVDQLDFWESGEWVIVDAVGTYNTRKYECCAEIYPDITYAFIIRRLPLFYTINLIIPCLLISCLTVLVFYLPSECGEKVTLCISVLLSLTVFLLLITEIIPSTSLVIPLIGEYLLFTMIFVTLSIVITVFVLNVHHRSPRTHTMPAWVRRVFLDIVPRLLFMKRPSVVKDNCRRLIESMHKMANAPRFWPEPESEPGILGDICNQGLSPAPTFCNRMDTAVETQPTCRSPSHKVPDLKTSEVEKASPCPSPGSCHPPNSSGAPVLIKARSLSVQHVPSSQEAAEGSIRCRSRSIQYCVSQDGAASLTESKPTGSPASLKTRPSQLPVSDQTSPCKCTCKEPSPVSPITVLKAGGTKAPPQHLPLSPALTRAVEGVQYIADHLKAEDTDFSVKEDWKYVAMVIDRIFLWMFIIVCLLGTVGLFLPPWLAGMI
Sequence of β2*-nAChR (Mus musculus, UniProt O70174+Q9ERK7) (Q9ERK7 26-501): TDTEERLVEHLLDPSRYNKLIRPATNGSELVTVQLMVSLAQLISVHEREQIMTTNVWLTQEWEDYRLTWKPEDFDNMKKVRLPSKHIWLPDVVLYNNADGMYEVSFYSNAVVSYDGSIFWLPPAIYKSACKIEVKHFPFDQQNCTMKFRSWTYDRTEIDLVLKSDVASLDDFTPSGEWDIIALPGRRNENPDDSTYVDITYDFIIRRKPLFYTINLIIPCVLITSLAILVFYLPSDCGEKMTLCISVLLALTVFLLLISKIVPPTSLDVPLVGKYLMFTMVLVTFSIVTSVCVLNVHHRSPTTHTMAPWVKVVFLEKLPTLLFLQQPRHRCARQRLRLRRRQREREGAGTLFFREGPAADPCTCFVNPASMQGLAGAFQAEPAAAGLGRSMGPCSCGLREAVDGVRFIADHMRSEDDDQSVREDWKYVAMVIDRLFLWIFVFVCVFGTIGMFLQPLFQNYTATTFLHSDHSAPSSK

α7* receptors = settings: read-out: Ki α7* receptors in rat brain; cited from earlier work
α4β2* receptors = settings: read-out: Ki α4β2* receptors in rat brain; cited from earlier work
human α7 = settings: read-out: Ki human α7; cited from earlier work
human α4β2 = settings: read-out: Ki human α4β2; cited from earlier work
[4] = system: [3H]noradrenaline release; settings: read-out: EC50 [3H]noradrenaline release; cited from earlier work
[3H]dopamine release = read-out: EC50 [3H]dopamine release; cited from earlier work
human α7 nAChR = settings: read-out: EC50 human α7 nAChR; cited from earlier work
α4β2-nAChR = settings: cited from earlier work
β2*-nAChR [5] = settings: ref Luetje and Patrick, 1991; cited from earlier work
β4*-nAChR [6] = settings: ref Luetje and Patrick, 1991; cited from earlier work
[7] = rats; ref Sloan et al., 1988; cited from earlier work

Sequence of α7-nAChR (P49582 23-502): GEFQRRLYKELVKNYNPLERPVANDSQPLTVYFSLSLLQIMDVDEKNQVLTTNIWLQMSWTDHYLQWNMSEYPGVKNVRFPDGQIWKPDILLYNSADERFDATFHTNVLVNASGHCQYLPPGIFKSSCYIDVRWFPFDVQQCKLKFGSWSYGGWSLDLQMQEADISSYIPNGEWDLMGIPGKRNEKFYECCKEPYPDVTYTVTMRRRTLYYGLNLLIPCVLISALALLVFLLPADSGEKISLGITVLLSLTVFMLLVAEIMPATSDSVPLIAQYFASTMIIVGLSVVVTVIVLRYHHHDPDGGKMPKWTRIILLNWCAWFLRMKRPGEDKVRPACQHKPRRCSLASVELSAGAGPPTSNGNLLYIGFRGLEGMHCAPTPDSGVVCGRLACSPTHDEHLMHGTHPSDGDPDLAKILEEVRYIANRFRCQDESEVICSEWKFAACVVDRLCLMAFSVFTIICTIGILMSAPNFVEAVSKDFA

C[N+](C)(C)CCCCCC[N+](C)(C)C [hexamethonium, reference compound]
effect of hexamethonium alone on body temperature (DBA/2J mice; 10 mg/kg ip, DBA/2J, vs saline): modest, but statistically significant, hypothermia | maximal 3-IC-induced hypothermia after hexamethonium pretreatment (DBA/2J mice; hexamethonium 10 mg/kg 10 min before 3-IC 0.2 mg/kg, DBA/2J): 5.66 ± 0.45 °C | blockade of 3-IC-induced hypothermia (DBA/2J mice; hexamethonium 10 mg/kg, DBA/2J): 33% | effect of hexamethonium alone on body temperature (C57BL/6J mice; 10 mg/kg ip, vs saline): did not affect body temperature | blockade of 3-IC-induced hypothermia (C57BL/6J mice; hexamethonium 10 mg/kg): 60% | maximal 3-IC-induced hypothermia after hexamethonium pretreatment (C57BL/6J mice; hexamethonium 10 mg/kg 10 min before 3-IC 0.2 mg/kg): 3.75 ± 0.67 °C

CNC1(C)C2CCC(C2)C1(C)C (stereo not drawn) [mecamylamine, reference compound]
effect of mecamylamine alone on body temperature (DBA/2J mice; 1 mg/kg ip, both mice strains): did not affect body temperature | time of maximal hypothermia after 3-IC injection, mecamylamine pretreated (DBA/2J mice; mecamylamine 1 mg/kg + 3-IC 0.2 mg/kg, DBA/2J): 20 min | 3-IC-induced hypothermia after mecamylamine pretreatment (DBA/2J mice; mecamylamine 1 mg/kg ip 10 min before 3-IC 0.2 mg/kg, DBA/2J): 1.13 ± 0.42 °C | blockade of 3-IC-induced hypothermia (C57BL/6J mice; mecamylamine 1 mg/kg before 3-IC 0.2 mg/kg): complete | 3-IC-induced hypothermia after mecamylamine pretreatment (C57BL/6J mice; mecamylamine 1 mg/kg ip 10 min before 3-IC 0.2 mg/kg): 0.13 ± 0.09 °C

CN1CCC[C@H]1c1cccnc1 [nicotine]
Ki (α7-nAChR): 930 ± 100 nM | difference in affinity for the two [125I]epibatidine binding sites [1]: 20 fold | increase in [125I]α-bungarotoxin binding sites (α7* nAChR binding sites; caudate putamen): 14.2% | increase in [125I]α-bungarotoxin binding sites (α7* nAChR binding sites; dentate gyrus): 12.6% | increase in [125I]α-bungarotoxin binding sites (α7* nAChR binding sites; hippocampus): 33% | increase in [125I]α-bungarotoxin binding sites (α7* nAChR binding sites; medial habenula): 22.6% | increase in [125I]α-bungarotoxin binding sites (α7* nAChR binding sites; substantia nigra): 25.6% | increase in [125I]α-bungarotoxin binding sites (α7* nAChR binding sites; zona incerta): 17.6%

O=c1c(Br)ccc2n1C[C@@H]1CNC[C@H]2C1 [3-bromocytisine]
agonist efficacy at human α3β4-nAChR (human α3β4-nAChR): full agonist

O=c1cccc2n1C[C@@H]1CNC[C@H]2C1 [cytisine, reference compound]
Ki (α7-nAChR): 1580 ± 180 nM | difference in affinity for the two [125I]epibatidine binding sites [1]: 60 fold | Ki (β4*-nAChR [2]): 9.7 ± 1.5 nM | Ki (β2*-nAChR [3]): 0.35 ± 0.01 nM | Ki (α7* receptors): 8000 nM | Ki (α4β2* receptors): 1.2 nM | Ki (human α7): 30000 nM | Ki (human α4β2): 0.6 nM | EC50 [4]: 7400 nM | EC50 ([3H]dopamine release): 280 nM | EC50 (human α7 nAChR): 83000 nM | EC50 (α4β2-nAChR; read-out: EC50 high agonist sensitive form of α4β2-nAChR): 5 nM | EC50 (α4β2-nAChR; read-out: EC50 low agonist sensitive form of α4β2-nAChR): 2000 nM | agonist efficacy at β2*-nAChR (β2*-nAChR [5]): partial agonist | agonist efficacy at β4*-nAChR (β4*-nAChR [6]): full agonist | half-life [7]: longer half-life than nicotine
